Where “and” joins values, the source holds several entries; their conditions need not be identical. Equal entries are not always repeated.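 Grown in 96-well plates, cells were treated for 48 hours with each compound at five concentrations. Insufficient inhibition: endpoint recorded as highest concentration tested. Here, GI50 denotes the concentration required for 50% inhibition of growth. Definition used: TGI = concentration required for complete inhibition of growth.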
Legend:
Assay in all cases: NCI anticancer screen, dose series, 48 h
786-0 renal = system: 786-0 renal
BT-549 breast = system: BT-549 breast
HCT-116 colon = system: HCT-116 colon
HT29 colon = system: HT29 colon
MALME-3M melanoma = system: MALME-3M melanoma
PC-3 prostate = system: PC-3 prostate
RPMI-8226 leukemia = system: RPMI-8226 leukemia
SNB-19 CNS = system: SNB-19 CNS
SR leukemia = system: SR leukemia
UACC-62 melanoma = system: UACC-62 melanoma

SMILES | GI50 (786-0 renal) | TGI (786-0 renal) | GI50 (BT-549 breast) | TGI (BT-549 breast) | GI50 (HCT-116 colon) | TGI (HCT-116 colon) | GI50 (HT29 colon) | TGI (HT29 colon) | GI50 (MALME-3M melanoma) | TGI (MALME-3M melanoma) | GI50 (PC-3 prostate) | TGI (PC-3 prostate) | GI50 (RPMI-8226 leukemia) | TGI (RPMI-8226 leukemia) | GI50 (SNB-19 CNS) | TGI (SNB-19 CNS) | GI50 (SR leukemia) | TGI (SR leukemia) | GI50 (UACC-62 melanoma) | TGI (UACC-62 melanoma)
CC(C)[NH-].CC(C)[NH-].O.O.[Cl][Pt+2][Cl] | 33.8 µM | 126 µM | 56 µM | 266 µM | 20.6 µM | 69.3 µM | 12.7 µM | 83.8 µM | 19.4 µM | 57.8 µM | 90.8 µM | 298 µM | 38.1 µM | 281 µM | 70.9 µM | 314 µM | 17.8 µM | 53.5 µM | 26.7 µM | 128 µM
COc1ccc2c(c1)c1nc3cc(C)c(C)cc3nc1n2CCN(C)C | 1.02 µM | 2.73 µM | 1.7 µM | 3.49 µM | 0.354 µM | 1.64 µM | 0.529 µM | 1.94 µM | 1.11 µM | 2.53 µM | 1.04 µM | 2.48 µM | 0.453 µM | 2.35 µM | 0.678 µM | 2.32 µM | 0.428 µM | 4.81 µM | 0.884 µM | 2.48 µM
Clc1ccc(C(c2ccc(Cl)cc2)N2CCNCC2)cc1 |  | 3.17 µM |  | 38.3 µM |  | 3.84 µM |  | 4.51 µM |  | 3.12 µM |  | 7.15 µM |  | 4.66 µM |  | 21.3 µM |  | 4.41 µM |  | 3.55 µM
Cc1cccc(Cl)c1NC(=O)c1cnc(Nc2cc(N3CCOCC3)cc(N3CCOCC3)c2)s1 | 0.0183 µM |  | > 4.46 µM | > 10 µM | 0.0328 µM | > 10 µM | 0.0181 µM | 0.19 µM | > 4.82 µM | > 10 µM | 0.152 µM | > 10 µM | > 6.24 µM | > 10 µM | > 3.36 µM | > 10 µM |  | > 10 µM | 1.7 µM | > 10 µM
CN[C@@H]1C[C@H]2O[C@@](C)([C@@H]1OC)n1c3ccccc3c3c4c(c5c6ccccc6n2c5c31)C(=O)N[C@H]4O |  | 0.203 µM | 0.0683 µM | 0.617 µM | 0.166 µM | 1.89 µM | 0.0827 µM | 1.38 µM | 0.0217 µM | 0.486 µM | 0.0149 µM | 1.14 µM | 0.186 µM | 1.49 µM | 0.0958 µM | 0.722 µM | 0.0336 µM | 1.92 µM | 0.0134 µM | 0.231 µM
O=C(O)C1C(=O)Oc2c(cccc2[N+](=O)[O-])C1O (centres undefined) |  | > 100 µM |  | > 100 µM |  | > 100 µM |  | > 100 µM |  | > 100 µM |  | > 100 µM |  | > 100 µM |  | > 100 µM |  | > 100 µM |  | > 100 µM
C[C@@H](NC(=O)[C@@H](CC(=O)N1CCC(N2CCCCC2)CC1)N1C(=O)[C@@H](N2C(=O)OC[C@@H]2c2ccccc2)[C@H]1/C=C/c1cccc(Cl)c1)c1ccccc1 | 1.88 µM | 3.95 µM | 5.14 µM | 18 µM | 1.97 µM | 4.11 µM | 2.78 µM | 7.95 µM | 1.68 µM | 3.3 µM | 5.37 µM | 18.9 µM | 2.93 µM | 8.32 µM | 2.77 µM | 7.57 µM | 2.61 µM | 7.78 µM | 1.95 µM | 3.88 µM
COc1cc(F)cc([C@@H](CO)NC(=O)[C@@H](C)N2Cc3ccc(-c4nc(NC5CCOCC5)ncc4Cl)cc3C2=O)c1 | 9.23 µM | > 100 µM | 5.43 µM | 24.3 µM | 0.0173 µM | > 54.9 µM | < 0.01 µM | > 54.2 µM | < 0.01 µM | < 0.01 µM | 9.69 µM | 98.2 µM | 1.83 µM | 38.1 µM | 1.73 µM | > 100 µM | 10.8 µM | 70.7 µM | < 0.01 µM | 0.0248 µM
O=C(NCCCCCCNC(=O)n1cc(F)c(=O)[nH]c1=O)NCCCOCCOCCOCCOCCOCCOCCOCCOCCOCCOCCOCCOCCOCCOCCOCCOCCOCCOCCOCCOCCOCCCNC(=O)C(O)C(O)C(OC1OC(CO)C(O)C(O)C1O)C(O)CO (centres undefined) |  | > 100 µM |  | > 100 µM |  | > 100 µM |  | > 100 µM |  | > 100 µM |  | > 100 µM |  | > 100 µM |  | > 100 µM |  | > 100 µM |  | > 100 µM
OC(C1CO1)C(O)C1CO1 (centres undefined) | 18.7 µM | 48.5 µM and 139 µM | 29.5 µM | 84.7 µM and 299 µM | 40.2 µM | 110 µM and 209 µM | 97.7 µM | 150 µM and 345 µM |  | 125 µM and 263 µM | 76.1 µM | 150 µM and 220 µM | 84 µM | 150 µM and 861 µM | 107 µM | 139 µM and 334 µM |  | 72.2 µM and 528 µM |  | 72.1 µM and 130 µM
